Laboratory results as given in PubChem BioAssay (NCI).
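Where inhibition never reached the appropriate level, the endpoint shown equals the highest concentration tested. Otherwise, values were interpolated linearly from a five-concentration, 48-hour dose response in 96-well plates. TGI denotes the concentration required for complete inhibition of growth.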

Key:
Test in all cases: NCI tumour cell line growth inhibition, 48 h
BT-549 breast = test system: BT-549 breast
NCI-H460 lung = test system: NCI-H460 lung
UACC-257 melanoma = test system: UACC-257 melanoma
SK-MEL-2 melanoma = test system: SK-MEL-2 melanoma
A549 NSCLC = test system: A549 NSCLC
MDA-MB-435 = test system: MDA-MB-435
SK-MEL-28 melanoma = test system: SK-MEL-28 melanoma
HCT-116 colon = test system: HCT-116 colon
SK-OV-3 ovarian = test system: SK-OV-3 ovarian
MALME-3M melanoma = test system: MALME-3M melanoma
IGROV1 ovarian = test system: IGROV1 ovarian
ACHN renal = test system: ACHN renal
PC-3 prostate = test system: PC-3 prostate
DU-145 prostate = test system: DU-145 prostate
TK-10 renal = test system: TK-10 renal
OVCAR-8 ovarian = test system: OVCAR-8 ovarian
SF-295 CNS = test system: SF-295 CNS
UO-31 renal = test system: UO-31 renal
RPMI-8226 leukemia = test system: RPMI-8226 leukemia
HL-60(TB) leukemia = test system: HL-60(TB) leukemia
M14 melanoma = test system: M14 melanoma
CAKI-1 renal = test system: CAKI-1 renal
SF-268 CNS = test system: SF-268 CNS
MDA-MB-231 breast = test system: MDA-MB-231 breast
SW-620 colon = test system: SW-620 colon
HCC-2998 colon = test system: HCC-2998 colon
LOX IMVI melanoma = test system: LOX IMVI melanoma
K-562 leukemia = test system: K-562 leukemia
HOP-92 NSCLC = test system: HOP-92 NSCLC
COLO 205 colon = test system: COLO 205 colon
NCI/ADR-RES ovarian = test system: NCI/ADR-RES ovarian
HT29 colon = test system: HT29 colon
HOP-62 NSCLC = test system: HOP-62 NSCLC
NCI-H23 lung = test system: NCI-H23 lung
OVCAR-5 ovarian = test system: OVCAR-5 ovarian
OVCAR-4 ovarian = test system: OVCAR-4 ovarian
SK-MEL-5 melanoma = test system: SK-MEL-5 melanoma
HCT-15 colon = test system: HCT-15 colon
U251 CNS = test system: U251 CNS
MDA-N = test system: MDA-N
SNB-75 CNS = test system: SNB-75 CNS
OVCAR-3 ovarian = test system: OVCAR-3 ovarian
SN12C renal = test system: SN12C renal
MOLT-4 leukemia = test system: MOLT-4 leukemia
SNB-19 CNS = test system: SNB-19 CNS
T-47D breast = test system: T-47D breast
SR leukemia = test system: SR leukemia
NCI-H226 lung = test system: NCI-H226 lung
HS 578T breast = test system: HS 578T breast
RXF 393 renal = test system: RXF 393 renal
SF-539 CNS = test system: SF-539 CNS
786-0 renal = test system: 786-0 renal
EKVX NSCLC = test system: EKVX NSCLC
NCI-H522 lung = test system: NCI-H522 lung
CCRF-CEM leukemia = test system: CCRF-CEM leukemia
KM12 colon = test system: KM12 colon
UACC-62 melanoma = test system: UACC-62 melanoma
MCF7 breast = test system: MCF7 breast
A498 renal = test system: A498 renal

Measured: TGI

Cc1cccc(N=N/C(=N\NC(=O)c2cc(Cl)ccc2O)c2ccc(N(CCC#N)CCC#N)cc2C)c1
67.3 µM: K-562 leukemia
88.2 µM: HCT-15 colon
94.1 µM: MALME-3M melanoma
79.7 µM: NCI-H460 lung
97.6 µM: UACC-257 melanoma
84.6 µM: UACC-62 melanoma
44.9 µM: RPMI-8226 leukemia
60.7 µM: HOP-92 NSCLC
59.6 µM: T-47D breast
34.3 µM: CCRF-CEM leukemia
74 µM: HT29 colon
34.4 µM: HL-60(TB) leukemia
76.9 µM: TK-10 renal
87.7 µM: KM12 colon
43.6 µM: IGROV1 ovarian
49.6 µM: OVCAR-3 ovarian
82.9 µM: UO-31 renal
97.3 µM: RXF 393 renal
69 µM: SN12C renal
52.4 µM: SR leukemia
76.3 µM: OVCAR-4 ovarian
58.7 µM: HCC-2998 colon
39.9 µM: MOLT-4 leukemia
58.6 µM: MDA-MB-231 breast
72.6 µM: NCI-H522 lung
29.3 µM: COLO 205 colon
not listed: A498 renal
> 100 µM: all other assays above

C=C1CC[C@@H]2[C@](C)(COC(=O)CCC(=O)O)CCC[C@@]2(C)[C@@H]1CCC1=CC(=O)OC1
38.7 µM: DU-145 prostate
not listed: NCI-H460 lung | SR leukemia
> 100 µM: all other assays above

CC#CC#C/C(=C/C=CC(=O)OC)SC
not listed: ACHN renal | UO-31 renal | RPMI-8226 leukemia | HOP-62 NSCLC | NCI-H23 lung | OVCAR-3 ovarian | SNB-19 CNS | SR leukemia | RXF 393 renal | CCRF-CEM leukemia
> 100 µM: all other assays above

COc1ccc(-c2c3c(nc4nc(SCC(=O)c5ccc(Br)cc5)nc(N)c24)CCCC3)cc1OC
21.7 µM: SK-MEL-5 melanoma
28.6 µM: HS 578T breast
28.1 µM: SNB-75 CNS
59.2 µM: RXF 393 renal
not listed: SK-MEL-2 melanoma | HCC-2998 colon | HOP-92 NSCLC | MOLT-4 leukemia | NCI-H226 lung | 786-0 renal | NCI-H522 lung | A498 renal
> 100 µM: all other assays above
